Assay results taken from paper PMC2841478 (Journal of medicinal chemistry, 2008).
“Also recorded” adds a separate entry of the source. Like-named read-outs stand apart in the source and are kept apart here.

What was measured:
[1] = biological target: T1, norepinephrine transporter (NET) (Rattus norvegicus, UniProt Q63380); assay: Competitive binding at the NET with [3H]nisoxetine
[2] = biological target: T2, serotonin transporter (5-HTT) (Rattus norvegicus, UniProt P31652); assay: Competitive binding at the 5-HTT with [3H]paroxetine
[3] = biological target: T3, dopamine transporter (DAT) (Rattus norvegicus, UniProt P23977); assay: Competitive binding at the DAT with [3H]WIN 35,428
[4] = tested on: cocaine self-administration; conditions: rhesus monkeys, multiple second-order schedule; cited from earlier work
[5] = tested on: drug self-administration; conditions: three rhesus monkeys; cited from earlier work
[6] = biological target: T1, norepinephrine transporter (NET); conditions: read-out: NET, Ki [3H]nisoxetine; comparison data; cited from earlier work
[7] = biological target: T2, serotonin transporter (5-HTT); conditions: read-out: 5-HTT, Ki [3H]paroxetine; comparison data; cited from earlier work
[8] = tested on: reinforcement; conditions: squirrel monkeys; cited from earlier work
[9] = tested on: dopamine transporter (DAT); conditions: cited from earlier work
[10] = biological target: T3, dopamine transporter (DAT); conditions: read-out: DAT, IC50 [3H]12; comparison data; cited from earlier work

T1 sequence (Q63380 1-617): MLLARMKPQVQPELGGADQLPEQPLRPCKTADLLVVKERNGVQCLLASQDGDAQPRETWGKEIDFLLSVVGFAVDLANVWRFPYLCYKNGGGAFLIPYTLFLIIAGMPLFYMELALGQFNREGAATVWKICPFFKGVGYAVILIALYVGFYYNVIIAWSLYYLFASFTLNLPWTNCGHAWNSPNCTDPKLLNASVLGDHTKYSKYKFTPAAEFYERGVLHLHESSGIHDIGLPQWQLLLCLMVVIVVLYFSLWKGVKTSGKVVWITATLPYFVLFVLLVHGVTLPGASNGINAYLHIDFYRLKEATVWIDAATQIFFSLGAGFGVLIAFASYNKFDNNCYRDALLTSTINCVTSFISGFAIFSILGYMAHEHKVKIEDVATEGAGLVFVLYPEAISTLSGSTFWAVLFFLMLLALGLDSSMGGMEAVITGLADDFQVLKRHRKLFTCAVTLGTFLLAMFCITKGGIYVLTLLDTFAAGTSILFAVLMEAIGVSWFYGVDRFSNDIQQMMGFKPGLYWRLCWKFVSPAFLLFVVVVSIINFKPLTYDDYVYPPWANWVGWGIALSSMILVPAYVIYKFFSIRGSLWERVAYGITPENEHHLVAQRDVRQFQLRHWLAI
T2 sequence (P31652 whole entry): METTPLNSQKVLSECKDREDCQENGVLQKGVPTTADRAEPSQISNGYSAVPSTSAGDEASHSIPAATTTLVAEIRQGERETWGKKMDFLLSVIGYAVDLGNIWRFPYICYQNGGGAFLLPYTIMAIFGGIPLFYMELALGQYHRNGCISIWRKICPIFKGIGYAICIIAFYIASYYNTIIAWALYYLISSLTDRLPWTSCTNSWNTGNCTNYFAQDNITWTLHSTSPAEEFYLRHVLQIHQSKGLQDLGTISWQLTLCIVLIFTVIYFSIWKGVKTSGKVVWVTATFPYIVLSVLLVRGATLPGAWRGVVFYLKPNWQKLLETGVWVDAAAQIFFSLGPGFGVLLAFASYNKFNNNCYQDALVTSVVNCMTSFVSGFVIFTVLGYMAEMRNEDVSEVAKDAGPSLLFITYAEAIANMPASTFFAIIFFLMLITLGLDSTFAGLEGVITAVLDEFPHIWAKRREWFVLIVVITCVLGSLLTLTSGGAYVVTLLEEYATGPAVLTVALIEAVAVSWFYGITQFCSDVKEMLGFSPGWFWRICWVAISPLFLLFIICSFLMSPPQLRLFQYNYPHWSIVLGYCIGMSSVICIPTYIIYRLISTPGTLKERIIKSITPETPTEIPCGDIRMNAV
T3 sequence (P23977 whole entry): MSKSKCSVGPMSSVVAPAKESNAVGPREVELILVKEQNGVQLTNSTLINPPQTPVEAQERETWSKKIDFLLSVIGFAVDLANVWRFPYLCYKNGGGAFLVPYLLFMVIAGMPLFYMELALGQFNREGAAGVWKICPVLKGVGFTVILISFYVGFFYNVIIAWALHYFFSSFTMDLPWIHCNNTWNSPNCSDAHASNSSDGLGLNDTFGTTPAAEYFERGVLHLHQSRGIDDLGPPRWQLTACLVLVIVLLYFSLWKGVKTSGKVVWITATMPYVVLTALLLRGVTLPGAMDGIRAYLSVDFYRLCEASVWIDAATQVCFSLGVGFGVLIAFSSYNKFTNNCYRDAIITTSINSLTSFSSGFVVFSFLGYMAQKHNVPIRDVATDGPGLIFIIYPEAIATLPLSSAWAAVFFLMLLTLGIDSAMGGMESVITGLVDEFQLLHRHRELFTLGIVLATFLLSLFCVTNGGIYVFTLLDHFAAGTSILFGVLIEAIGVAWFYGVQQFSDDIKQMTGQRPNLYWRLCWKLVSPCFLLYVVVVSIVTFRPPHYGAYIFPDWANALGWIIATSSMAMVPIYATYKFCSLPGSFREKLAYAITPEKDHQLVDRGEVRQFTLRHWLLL

| SMILES | Ki [1] [nM] | Ki [2] [nM] | other results |
| --- | --- | --- | --- |
| COC(=O)[C@H]1[C@@H](c2ccc(OC)cc2)C[C@@H]2CC[C@H]1N2C [7a, 3β-(4-Methoxyphenyl)tropane-2β-carboxylic Acid Methyl Ester] | 1110 ± 64 | 4.3 ± 0.5 | – |
| CCOc1ccc([C@H]2C[C@@H]3CC[C@H]([C@H]2C(=O)OC)N3C)cc1 [7b, 3β-(4-Ethoxyphenyl)tropane-2β-carboxylic Acid Methyl Ester] | 1690 ± 50 | 1.7 ± 0.4 | – |
| COC(=O)[C@H]1[C@@H](c2ccc(OC)c(F)c2)C[C@@H]2CC[C@H]1N2C [7c, 3β-(3-Fluoro-4-methoxyphenyl)tropane-2β-carboxylic Acid Methyl Ester] | 270 ± 50 | 4.8 ± 0.5 | – |
| COC(=O)[C@H]1[C@@H](c2ccc(OC)c(Br)c2)C[C@@H]2CC[C@H]1N2C [7d, 3β-(3-Bromo-4-methoxyphenyl)tropane-2β-carboxylic Acid Methyl Ester] | 160 ± 20 | 3.1 ± 0.1 | – |
| COC(=O)[C@H]1[C@@H](c2cc(I)c(OC)c(I)c2)C[C@@H]2CC[C@H]1N2C [7g, 3β-(3,5-Diiodo-4-methoxyphenyl)tropane-2β-carboxylic Acid Methyl Ester] | > 5000 | 7.5 ± 0.8 | – |
| COc1ccc([C@H]2C[C@@H]3CC[C@H]([C@H]2C(=O)OC(C)C)N3C)cc1 [8a, 3β-(4-Methoxyphenyl)tropane-2β-carboxylic Acid Isopropyl Ester] | 2010 ± 200 | 135 ± 35 | – |
| COc1ccc([C@H]2C[C@@H]3CC[C@H]([C@H]2C(=O)OC2CC2)N3C)cc1 [8b, 3β-(4-Methoxyphenyl)tropane-2β-carboxylic Acid Cyclopropyl Ester] | 1230 ± 140 | 29 ± 3 | – |
| COc1ccc([C@H]2C[C@@H]3CC[C@H]([C@H]2C(=O)OC2CCC2)N3C)cc1 [8c, 3β-(4-Methoxyphenyl)tropane-2β-carboxylic Acid Cyclobutyl Ester] | > 3000 | 100 ± 8 | – |
| COc1ccc([C@H]2C[C@@H]3CC[C@H]([C@H]2C(=O)OCCc2ccc([N+](=O)[O-])cc2)N3C)cc1 [8d, 3β-(4-Methoxyphenyl)tropane-2β-carboxylic Acid 2-(4-Nitrophenyl)ethyl Ester] | 330 ± 20 | 2.9 ± 0.2 | – |
| COc1ccc([C@H]2C[C@@H]3CC[C@H]([C@H]2C(=O)OCCc2ccc(N)cc2)N3C)cc1 [8e, 3β-(4-Methoxyphenyl)tropane-2β-carboxylic Acid 2-(4-Aminophenyl)ethyl Ester] | 2200 ± 300 | 8.3 ± 0.4 | – |
| COc1ccc([C@H]2C[C@@H]3CC[C@H]([C@H]2C(=O)OCCc2ccc(NC(C)=O)cc2)N3C)cc1 [8f, 3β-(4-Methoxyphenyl)tropane-2β-carboxylic Acid 2-(4-Acetylaminophenyl)ethyl Ester] | 1460 ± 30 | 5.5 ± 0.5 | – |
| COc1ccc([C@H]2C[C@@H]3CC[C@H]([C@H]2C(=O)OCCc2ccc(N)c(Br)c2)N3C)cc1 [8g, 3β-(4-Methoxyphenyl)tropane-2β-carboxylic Acid 2-(3-Bromo-4-aminophenyl)ethyl Ester] | 1850 ± 90 | 4.1 ± 0.6 | – |
| COc1ccc([C@H]2C[C@@H]3CC[C@H]([C@H]2C(=O)OCCc2cc(Br)c(N)c(Br)c2)N3C)cc1 [8h, 3β-(4-Methoxyphenyl)tropane-2β-carboxylic Acid 2-(3,5-Dibromo-4-aminophenyl)ethyl Ester] | 2710 ± 250 | 2 ± 0.4 | – |
| COc1ccc([C@H]2C[C@@H]3CC[C@H]([C@H]2C(=O)OCCc2ccc(N)c(I)c2)N3C)cc1 [8i, 3β-(4-Methoxyphenyl)tropane-2β-carboxylic Acid 2-(3-Iodo-4-aminophenyl)ethyl Ester] | 2040 ± 300 | 3.5 ± 1 | – |
| COc1ccc([C@H]2C[C@@H]3CC[C@H]([C@H]2C(=O)OCCc2cc(I)c(N)c(I)c2)N3C)cc1 [8j, 3β-(4-Methoxyphenyl)tropane-2β-carboxylic Acid 2-(3,5-Diiodo-4-aminophenyl)ethyl Ester] | 2600 ± 200 | 1 ± 0.1 | IC50 [3]: 100 nM |
| Cc1ccc(-c2cc([C@@H]3C4CCC(C[C@@H]3c3ccc(Cl)cc3)N4C)on2)cc1 (stereo partly drawn) [compound 3, 3β-(4-chlorophenyl)-2β-[3-(4′-methylphenyl)isoxazol-5-yl]tropane] | – | – | Cocaine maintained responding after pretreatment [4]: dose-dependent reduction |
| COC(=O)[C@H]1[C@@H](c2ccc(Cl)c(C)c2)C[C@@H]2CC[C@H]1N2C [compound 6, 3β-(4-Chloro-3-methylphenyl)tropane-2β-carboxylic acid methyl ester] | – | – | Maintenance of drug self-administration [5]: failed to maintain robust drug self-administration; Ki [6]: 21.8 ± 0.6 nM; Ki [7]: 0.95 ± 0.04 nM; Reinforcement effects [8]: did not exhibit any reinforcement effects; DAT occupancy ([9]; at the ED50 for reduction of cocaine self-administration): no detectable; also recorded: below the limits of detection; DAT occupancy ([9]; highest dose tested): greater than 70%; IC50 [10]: 0.82 ± 0.05 nM |
| COc1ccc([C@H]2C[C@@H]3CC[C@H]([C@H]2c2cc(-c4ccc(C)cc4)no2)N3C)cc1 [compound 9, 3β-(4-Methoxyphenyl)-2β-[3-(4′-methylphenyl)isoxazol-5-yl]tropane] | > 3000 | 860 ± 170 | – |
